Source: US8937080B2, “Pyrimidine substituted macrocyclic HCV inhibitors” (Medivir AB, priority 2007, dated 2015)
Read-outs that look alike come from different tables or passages of the source.

Experiments:
[1] = rcm bond, 14-membered ring, Hoveyda-Grubbs II, DCE, 16.0 h
[2] = from C=CCCCCN(C)C(=O)C1CC(Oc2ccnc(-c3ccccc3)n2)CC1C(=O)NC1(C(=O)NS(=O)(=O)C2CC2)CC1C=C; rcm bond; 14-membered ring; Hoveyda-Grubbs II; 150.0 °C; 0.17 h
[3] = target: HCV NS3/4A protease complexes (full-length hepatitis C NS3 protease enzyme with NS4A cofactor) (Hepatitis C virus genotype 1a, UniProt P27958); assay: Inhibition assay (enzymatic assay, depsipeptide substrate hydrolysis); type: biochemical; conditions: enzyme 1 nM, 25 μM NS4A cofactor, 0.5 μM substrate, 30° C., competitive inhibition model
Chain of HCV NS3/4A protease complexes (full-length hepatitis C NS3 protease enzyme with NS4A cofactor) (P27958 1027-1657, other chains not shown): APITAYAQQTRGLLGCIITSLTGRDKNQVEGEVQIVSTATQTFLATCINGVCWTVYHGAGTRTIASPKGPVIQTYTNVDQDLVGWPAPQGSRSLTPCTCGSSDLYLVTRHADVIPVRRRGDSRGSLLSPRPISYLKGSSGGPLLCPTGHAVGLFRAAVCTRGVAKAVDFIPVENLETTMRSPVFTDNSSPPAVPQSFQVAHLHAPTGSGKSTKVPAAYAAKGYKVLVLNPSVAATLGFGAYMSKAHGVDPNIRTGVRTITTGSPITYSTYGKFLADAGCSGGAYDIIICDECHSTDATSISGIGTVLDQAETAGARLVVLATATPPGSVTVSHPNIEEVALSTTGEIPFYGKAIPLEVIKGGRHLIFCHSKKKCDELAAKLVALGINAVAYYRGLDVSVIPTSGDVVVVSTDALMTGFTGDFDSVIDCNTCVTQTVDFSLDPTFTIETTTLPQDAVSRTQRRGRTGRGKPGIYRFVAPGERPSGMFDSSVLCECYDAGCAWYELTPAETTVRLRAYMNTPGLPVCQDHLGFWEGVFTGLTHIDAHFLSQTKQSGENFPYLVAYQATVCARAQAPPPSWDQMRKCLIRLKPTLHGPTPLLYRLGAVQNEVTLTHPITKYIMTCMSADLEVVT
Description: The aim of this in vitro assay is to measure the inhibition of HCV NS3/4A protease complexes by the compounds of the present invention. This assay provides an indication of how effective compounds of the present invention would be in inhibiting HCV NS3/4A proteolytic activity.
The inhibition of full-length hepatitis C NS3 protease enzyme was measured essentially as described in Poliakov, 2002 Prot Expression & Purification 25 363 371. Briefly, the hydrolysis of a depsipeptide substrate, Ac-DED(Edans)EEAbuψ[COO]ASK(Dabcyl)-NH2 (AnaSpec, San José, USA), was measured spectrofluorometrically in the presence of a peptide cofactor, KKGSVVIVGRIVLSGK (Åke Engström, Department of Medical Biochemistry and Microbiology, Uppsala University, Sweden). [Landro, 1997 #Biochem 36 9340-9348]. The enzyme (1 nM) was incubated in 50 mM HEPES, pH 7.5, 10 mM DTT, 40% glycerol, 0.1% n-octyl-D-glucoside, with 25 μM NS4A cofactor and inhibitor at 30° C. for 10 min, whereupon the reaction was initiated by addition of 0.5 μM substrate. Inhibitors were dissolved in DMSO, sonicated for 30 sec. and vortexed. The solutions were stored at −20° C. between measurements.
The final concentration of DMSO in the assay sample was adjusted to 3.3%. The rate of hydrolysis was corrected for inner filter effects according to published procedures.
[Liu, 1999 Analytical Biochemistry 267 331-335]. Ki values were estimated by non-linear regression analysis (GraFit, Erithacus Software, Staines, MX, UK), using a model for competitive inhibition and a fixed value for Km (0.15 μM). A minimum of two replicates was performed for all measurements.

[4] = tested on: HCV replicons (wild type NS3-NS5B regions of HCV type 1b) in Huh-7 luc/neo cells; assay: Replicon assay (Huh-Luc cells, luciferase readout); type: cell-based; conditions: Hepatitis C virus, Huh-7, 72 h, incubation of three days, luciferase activity
From the text: The compounds of formula (I) were examined for activity in the inhibition of HCV RNA replication in a cellular assay. […] The cellular assay was based on a bicistronic expression construct, as described by Lohmann et al. (1999) Science vol. 285 pp. 110-113 with modifications described by Krieger et al. (2001) Journal of Virology 75: 4614-4624, in a multi-target screening strategy. In essence, the method was as follows.
The assay utilized the stably transfected cell line Huh-7 luc/neo (hereafter referred to as Huh-Luc). This cell line harbors an RNA encoding a bicistronic expression construct comprising the wild type NS3-NS5B regions of HCV type 1b translated from an Internal Ribosome Entry Site (IRES) from encephalomyocarditis virus (EMCV), preceded by a reporter portion (FfL-luciferase), and a selectable marker portion (neo^R, neomycine phosphotransferase). The construct is bordered by 5′ and 3′ NTRs (non-translated regions) from HCV type 1b. Continued culture of the replicon cells in the presence of G418 (neo^R) is dependent on the replication of the HCV RNA. The stably transfected replicon cells that express HCV RNA, which replicates autonomously and to high levels, encoding inter alia luciferase, are used for screening the antiviral compounds.
The replicon cells were plated in 384 well plates in the presence of the test and control compounds which were added in various concentrations. Following an incubation of three days, HCV replication was measured by assaying luciferase activity (using standard luciferase assay substrates and reagents and a Perkin Elmer ViewLux™ ultraHTS microplate imager). Replicon cells in the control cultures have high luciferase expression in the absence of any inhibitor. The inhibitory activity of the compound on luciferase activity was monitored on the Huh-Luc cells, enabling a dose-response curve for each test compound. EC50 values were then calculated, which value represents the amount of the compound required to decrease by 50% the level of detected luciferase activity, or more specifically, the ability of the genetically linked HCV replicon RNA to replicate.

CCOC(=O)C12CC1C=CCCCCN(C)C(=O)C1CC(Oc3cc(C(C)(C)C)nc(OC)n3)CC1C(=O)N2 (stereo not drawn)
ring closure, isolated yield ([1]; from C=CCCCCN(C)C(=O)C1CC(Oc2cc(C(C)(C)C)nc(OC)n2)CC1C(=O)NC1(C(=O)OCC)CC1C=C, 1.74 mM): 74%

CN1CCCCC=CC2CC2(C(=O)NS(=O)(=O)C2CC2)NC(=O)C2CC(Oc3ccnc(-c4ccccc4)n3)CC2C1=O (stereo not drawn) [Example 10, Cyclopropanesulfonic acid [13-methyl-2,14-dioxo-17-(2-phenylpyrimidin-4-yloxy)-3,13-diaza-tricyclo[13.3.0.0*4,6*]octadec-7-ene-4-carbonyl]-amide]
ring closure, yield after HPLC [2]: 16% | Ki [3]: > 1 µM | EC50 [4]: > 10 µM

CCOC(=O)C12CC1C=CCCCCN(C)C(=O)C1CC(Oc3cc(-c4ccccc4)nc(-c4ccccc4)n3)CC1C(=O)N2 (stereo not drawn)
ring closure, isolated yield ([1]; from C=CCCCCN(C)C(=O)C1CC(Oc2cc(-c3ccccc3)nc(-c3ccccc3)n2)CC1C(=O)NC1(C(=O)OCC)CC1C=C, 1.66 mM): 76%

CCOC(=O)C12CC1C=CCCCCN(C)C(=O)C1CC(Oc3cc(-c4ccccc4)nc(OC)n3)CC1C(=O)N2 (stereo not drawn)
ring closure, isolated yield ([1]; from C=CCCCCN(C)C(=O)C1CC(Oc2cc(-c3ccccc3)nc(OC)n2)CC1C(=O)NC1(C(=O)OCC)CC1C=C, 1.83 mM): 70%
